From ChEMBL document CHEMBL1147144, “Novel styrylpyridines as probes for SPECT imaging of amyloid plaques” (J Med Chem, 2007)

Columns and labels:
Heart [1] = experiment: Biodistribution in ICR mouse heart at 5 to 10 uCi, iv after 2 mins; format: ADME, organism-based; settings: in vivo
Heart [2] = experiment: Biodistribution in ICR mouse heart at 5 to 10 uCi, iv after 30 mins; format: ADME, organism-based; settings: in vivo, 0.5 h
Heart [3] = experiment: Biodistribution in ICR mouse heart at 5 to 10 uCi, iv after 1 hr; format: ADME, organism-based; settings: in vivo
Kidney [4] = experiment: Biodistribution in ICR mouse kidney at 5 to 10 uCi, iv after 2 hrs; format: ADME, organism-based; settings: in vivo
Spleen [5] = experiment: Biodistribution in ICR mouse spleen at 5 to 10 uCi, iv after 2 mins; format: ADME, organism-based; settings: in vivo
Spleen [6] = experiment: Biodistribution in ICR mouse spleen at 5 to 10 uCi, iv after 30 mins; format: ADME, organism-based; settings: in vivo, 0.5 h
Heart [7] = experiment: Biodistribution in ICR mouse heart at 5 to 10 uCi, iv after 2 hrs; format: ADME, organism-based; settings: in vivo
Muscle tissue [8] = experiment: Biodistribution in ICR mouse muscle at 5 to 10 uCi, iv after 2 mins; format: ADME, organism-based; settings: in vivo
Muscle tissue [9] = experiment: Biodistribution in ICR mouse muscle at 5 to 10 uCi, iv after 30 mins; format: ADME, organism-based; settings: in vivo, 0.5 h
Muscle tissue [10] = experiment: Biodistribution in ICR mouse muscle at 5 to 10 uCi, iv after 1 hr; format: ADME, organism-based; settings: in vivo
Muscle tissue [11] = experiment: Biodistribution in ICR mouse muscle at 5 to 10 uCi, iv after 2 hrs; format: ADME, organism-based; settings: in vivo
Lung [12] = experiment: Biodistribution in ICR mouse lung at 5 to 10 uCi, iv after 2 mins; format: ADME, organism-based; settings: in vivo
Lung [13] = experiment: Biodistribution in ICR mouse lung at 5 to 10 uCi, iv after 30 mins; format: ADME, organism-based; settings: in vivo, 0.5 h
Lung [14] = experiment: Biodistribution in ICR mouse lung at 5 to 10 uCi, iv after 1 hr; format: ADME, organism-based; settings: in vivo
Lung [15] = experiment: Biodistribution in ICR mouse lung at 5 to 10 uCi, iv after 2 hrs; format: ADME, organism-based; settings: in vivo
Kidney [16] = experiment: Biodistribution in ICR mouse kidney at 5 to 10 uCi, iv after 2 mins; format: ADME, organism-based; settings: in vivo
Kidney [17] = experiment: Biodistribution in ICR mouse kidney at 5 to 10 uCi, iv after 30 mins; format: ADME, organism-based; settings: in vivo, 0.5 h
Kidney [18] = experiment: Biodistribution in ICR mouse kidney at 5 to 10 uCi, iv after 1 hr; format: ADME, organism-based; settings: in vivo
Spleen [19] = experiment: Biodistribution in ICR mouse spleen at 5 to 10 uCi, iv after 1 hr; format: ADME, organism-based; settings: in vivo
Spleen [20] = experiment: Biodistribution in ICR mouse spleen at 5 to 10 uCi, iv after 2 hrs; format: ADME, organism-based; settings: in vivo
Liver [21] = experiment: Biodistribution in ICR mouse liver at 5 to 10 uCi, iv after 2 mins; format: ADME, organism-based; settings: in vivo
Liver [22] = experiment: Biodistribution in ICR mouse liver at 5 to 10 uCi, iv after 30 mins; format: ADME, organism-based; settings: in vivo, 0.5 h
Liver [23] = experiment: Biodistribution in ICR mouse liver at 5 to 10 uCi, iv after 1 hr; format: ADME, organism-based; settings: in vivo
Liver [24] = experiment: Biodistribution in ICR mouse liver at 5 to 10 uCi, iv after 2 hrs; format: ADME, organism-based; settings: in vivo
Zone of skin [25] = experiment: Biodistribution in ICR mouse skin at 5 to 10 uCi, iv after 2 mins; format: ADME, organism-based; settings: in vivo
Zone of skin [26] = experiment: Biodistribution in ICR mouse skin at 5 to 10 uCi, iv after 30 mins; format: ADME, organism-based; settings: in vivo, 0.5 h
Zone of skin [27] = experiment: Biodistribution in ICR mouse skin at 5 to 10 uCi, iv after 1 hr; format: ADME, organism-based; settings: in vivo
Zone of skin [28] = experiment: Biodistribution in ICR mouse skin at 5 to 10 uCi, iv after 2 hrs; format: ADME, organism-based; settings: in vivo
Brain [29] = experiment: Biodistribution in ICR mouse brain at 5 to 10 uCi, iv after 2 mins; format: ADME, organism-based; settings: in vivo
Brain [30] = experiment: Biodistribution in ICR mouse brain at 5 to 10 uCi, iv after 30 mins; format: ADME, organism-based; settings: in vivo, 0.5 h
Brain [31] = experiment: Biodistribution in ICR mouse brain at 5 to 10 uCi, iv after 1 hr; format: ADME, organism-based; settings: in vivo
Brain [32] = experiment: Biodistribution in ICR mouse brain at 5 to 10 uCi, iv after 2 hrs; format: ADME, organism-based; settings: in vivo
Thyroid gland [33] = experiment: Biodistribution in ICR mouse thyroid at 5 to 10 uCi, iv after 2 mins; format: ADME, organism-based; settings: in vivo
Thyroid gland [34] = experiment: Biodistribution in ICR mouse thyroid at 5 to 10 uCi, iv after 30 mins; format: ADME, organism-based; settings: in vivo, 0.5 h
Thyroid gland [35] = experiment: Biodistribution in ICR mouse thyroid at 5 to 10 uCi, iv after 1 hr; format: ADME, organism-based; settings: in vivo
Thyroid gland [36] = experiment: Biodistribution in ICR mouse thyroid at 5 to 10 uCi, iv after 2 hrs; format: ADME, organism-based; settings: in vivo
Brain [37] = experiment: Ratio of drug distribution in brain after 2 mins to 30 mins in ICR mouse at 5 to 10 uCi, iv; format: ADME, organism-based; settings: in vivo
[38] = Partition coefficient, log P at pH 7.4; format: physicochemical; settings: octanol/water
Blood [39] = experiment: Biodistribution in ICR mouse blood at 5 to 10 uCi, iv after 2 mins; format: ADME, organism-based; settings: in vivo
Blood [40] = experiment: Biodistribution in ICR mouse blood at 5 to 10 uCi, iv after 30 mins; format: ADME, organism-based; settings: in vivo, 0.5 h
Blood [41] = experiment: Biodistribution in ICR mouse blood at 5 to 10 uCi, iv after 1 hr; format: ADME, organism-based; settings: in vivo
Blood [42] = experiment: Biodistribution in ICR mouse blood at 5 to 10 uCi, iv after 2 hrs; format: ADME, organism-based; settings: in vivo

Drug uptake (Heart [1]): 12.76 % ID/g | Drug uptake (Heart [2]): 1.63 % ID/g | Drug uptake (Heart [3]): 0.97 % ID/g | Drug uptake (Kidney [4]): 1.71 % ID/g | Drug uptake (Spleen [5]): 4.47 % ID/g | Drug uptake (Spleen [6]): 1.42 % ID/g | Drug uptake (Heart [7]): 0.73 % ID/g | Drug uptake (Muscle tissue [8]): 0.9 % ID/g | Drug uptake (Muscle tissue [9]): 1 % ID/g | Drug uptake (Muscle tissue [10]): 0.59 % ID/g | Drug uptake (Muscle tissue [11]): 0.53 % ID/g | Drug uptake (Lung [12]): 10.1 % ID/g | Drug uptake (Lung [13]): 2.5 % ID/g | Drug uptake (Lung [14]): 1.62 % ID/g | Drug uptake (Lung [15]): 1.33 % ID/g | Drug uptake (Kidney [16]): 16.6 % ID/g | Drug uptake (Kidney [17]): 3.32 % ID/g | Drug uptake (Kidney [18]): 2.3 % ID/g | Drug uptake (Spleen [19]): 0.99 % ID/g | Drug uptake (Spleen [20]): 0.79 % ID/g | Drug uptake (Liver [21]): 22.2 % ID/g | Drug uptake (Liver [22]): 9.54 % ID/g | Drug uptake (Liver [23]): 5.34 % ID/g | Drug uptake (Liver [24]): 5.62 % ID/g | Drug uptake (Zone of skin [25]): 0.54 % ID/g | Drug uptake (Zone of skin [26]): 1.47 % ID/g | Drug uptake (Zone of skin [27]): 1.59 % ID/g | Drug uptake (Zone of skin [28]): 1.23 % ID/g | Drug uptake (Brain [29]): 4.03 % ID/g | Drug uptake (Brain [30]): 1.93 % ID/g | Drug uptake (Brain [31]): 0.68 % ID/g | Drug uptake (Brain [32]): 0.26 % ID/g | Drug uptake (Thyroid gland [33]): 3.89 % ID/g | Drug uptake (Thyroid gland [34]): 16.2 % ID/g | Drug uptake (Thyroid gland [35]): 24.2 % ID/g | Drug uptake (Thyroid gland [36]): 60.8 % ID/g | Ratio (Brain [37]): 2.09 | logD [38]: 2.2 | Drug uptake (Blood [39]): 2.7 % ID/g | Drug uptake (Blood [40]): 2.05 % ID/g | Drug uptake (Blood [41]): 1.65 % ID/g | Drug uptake (Blood [42]): 1.45 % ID/g
SMILES: CN(C)c1ccc(/C=C/c2cnc(OCCOCCOCCF)c([125I])c2)cc1
